Measurements from ChEMBL document CHEMBL1201862, “PubChem BioAssay data set” (2004).
The source made the active and inactive calls.

Columns and labels:
[1] = target: Botulinum neurotoxin type F (Clostridium botulinum, UniProt P30996); assay: High-throughput multiplex microsphere dose response for inhibitors of toxin protease, specifically Botulinum neurotoxin light chain F protease, compounds from Cherry Pick 02.; format: functional; settings: read-out: EC50_MICROM
[2] = target: T1, Low molecular weight phosphotyrosine protein phosphatase (Homo sapiens, UniProt P24666); format: functional; settings: read-out: IC50_Mean
T1 sequence (P24666 whole entry): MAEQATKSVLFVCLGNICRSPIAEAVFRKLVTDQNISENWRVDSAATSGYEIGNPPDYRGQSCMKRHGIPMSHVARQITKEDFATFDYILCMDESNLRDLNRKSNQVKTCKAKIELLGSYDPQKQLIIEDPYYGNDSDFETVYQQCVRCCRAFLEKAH

[3] = target: T2, Calpain-2 catalytic subunit (Sus scrofa, UniProt P43367); assay: pig calpain II inhibitor potency, dose response, biochemical, fluorogenic peptide substrate (AID 1420); format: functional
T2 sequence (P43367 whole entry): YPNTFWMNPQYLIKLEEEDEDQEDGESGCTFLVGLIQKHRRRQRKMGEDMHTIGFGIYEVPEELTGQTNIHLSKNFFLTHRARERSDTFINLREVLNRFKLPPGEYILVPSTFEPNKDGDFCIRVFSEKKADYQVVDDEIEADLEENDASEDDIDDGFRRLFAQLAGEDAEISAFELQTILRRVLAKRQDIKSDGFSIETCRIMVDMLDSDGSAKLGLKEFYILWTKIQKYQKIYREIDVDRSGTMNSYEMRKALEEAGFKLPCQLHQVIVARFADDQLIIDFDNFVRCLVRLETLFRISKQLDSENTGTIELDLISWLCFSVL

[4] = target: T1, Low molecular weight phosphotyrosine protein phosphatase; format: functional; settings: read-out: IC50_Mean; remark: listed apart in the source
Streptococcus = assay: Group A Streptococcus viability loss, dose response, counter-screen for streptokinase expression inhibitor project, luminescence, BacTiterGlo (AID 1915); format: functional, organism-based;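 also: potency for reduction of bacterial viability or growth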
[5] = cytotoxicity toward NIH3T3 fibroblasts, dose response, counter-screen, cell-based, ATP luminescence, mouse fibroblasts (AID 2010); format: functional;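 also: cells exposed to compound for about 90 hours before reading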
Paired box protein Pax-8 = Paired box protein Pax-8 (Homo sapiens, UniProt Q06710); assay: inhibitors of PAX8-driven TPO luciferase reporter, dose response, RMG-I cells, cherry-pick (AID 687027); format: functional, cell-based;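 also: luciferase reporter driven by Pax8 target thyroperoxidase promoter measured by SteadyGlo luminescence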
Chain of Paired box protein Pax-8 (Q06710 whole entry): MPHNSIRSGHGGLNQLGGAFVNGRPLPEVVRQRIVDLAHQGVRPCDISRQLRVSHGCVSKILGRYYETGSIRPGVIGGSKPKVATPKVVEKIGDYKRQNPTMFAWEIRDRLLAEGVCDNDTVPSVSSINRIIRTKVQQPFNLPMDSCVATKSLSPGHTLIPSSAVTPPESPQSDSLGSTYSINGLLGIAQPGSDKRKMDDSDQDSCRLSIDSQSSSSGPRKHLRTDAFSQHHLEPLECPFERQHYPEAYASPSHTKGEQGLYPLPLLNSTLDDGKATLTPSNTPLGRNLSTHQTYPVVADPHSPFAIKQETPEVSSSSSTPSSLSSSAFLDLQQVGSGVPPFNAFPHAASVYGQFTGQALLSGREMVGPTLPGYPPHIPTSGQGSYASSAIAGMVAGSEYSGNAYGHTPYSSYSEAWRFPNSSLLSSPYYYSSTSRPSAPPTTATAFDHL

Melanocortin receptor 4 = Melanocortin receptor 4 (Homo sapiens, UniProt P32245); assay: MC4R antagonist potency on cAMP, dose response, cell-based, TR-FRET, biased antagonists (AID 602298); format: functional;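 also: antagonist potency against agonist-stimulated cAMP production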
Chain of Melanocortin receptor 4 (P32245 whole entry): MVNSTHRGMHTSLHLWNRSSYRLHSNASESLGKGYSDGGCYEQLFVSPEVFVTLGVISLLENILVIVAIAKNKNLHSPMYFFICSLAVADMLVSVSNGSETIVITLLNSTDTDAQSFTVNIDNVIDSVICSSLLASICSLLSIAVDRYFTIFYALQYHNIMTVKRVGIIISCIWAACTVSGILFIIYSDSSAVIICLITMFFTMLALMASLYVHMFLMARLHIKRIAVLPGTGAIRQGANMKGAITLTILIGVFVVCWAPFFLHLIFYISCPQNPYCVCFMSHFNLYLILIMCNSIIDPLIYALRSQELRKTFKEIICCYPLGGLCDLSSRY

[6] = target: T3, E3 ubiquitin-protein ligase XIAP (Homo sapiens, UniProt P98170); assay: XIAP antagonists, biochemical, IAP family, fluorescence polarization (AID 1018); format: functional
T3 sequence (P98170 whole entry): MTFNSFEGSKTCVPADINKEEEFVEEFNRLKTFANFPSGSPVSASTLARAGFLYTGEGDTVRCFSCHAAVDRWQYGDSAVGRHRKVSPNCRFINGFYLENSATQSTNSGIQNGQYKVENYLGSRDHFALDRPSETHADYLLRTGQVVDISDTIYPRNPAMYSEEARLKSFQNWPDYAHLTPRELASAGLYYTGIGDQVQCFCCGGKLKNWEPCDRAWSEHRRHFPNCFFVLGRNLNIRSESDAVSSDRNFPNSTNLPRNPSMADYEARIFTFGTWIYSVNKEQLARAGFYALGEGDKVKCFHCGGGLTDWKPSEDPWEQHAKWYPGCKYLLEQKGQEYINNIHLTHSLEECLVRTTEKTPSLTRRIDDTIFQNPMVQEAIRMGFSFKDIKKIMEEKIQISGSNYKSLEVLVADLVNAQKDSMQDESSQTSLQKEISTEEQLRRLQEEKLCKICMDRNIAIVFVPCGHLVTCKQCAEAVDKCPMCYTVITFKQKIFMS

[7] = nonselective inhibitors of cellular cAMP signaling, dose response, counter-screen for MC4R biased antagonist project, cell-based, TR-FRET cAMP detection (AID 602305); format: functional;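 also: U2OS cells stimulated with forskolin near its EC80 as the cAMP inducer; potency is for inhibition of forskolin-stimulated cAMP signaling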
[8] = target: T3, E3 ubiquitin-protein ligase XIAP; assay: Counter Screen using XIAP-Bir3 for Chemical Antagonists of Bir1/2 domains of IAP-family anti-apoptotic proteins. [Related pubchem assays (depositor defined):AID1018, AID1449, AID1514, AID1638, AID1749, AID1750, AID488957, AID488963]
[9] = tested on: Streptococcus sp. 'group A'; assay: growth inhibition of control SK(-) GAS strain, dose response, counter-screen for streptokinase expression inhibitor project, luminescence, kanamycin, BacTiterGlo, confirmation (AID 1900); format: functional, organism-based
[10] = inhibitors of intracellular T. cruzi replication, confirmation, NIH3T3 host cells, beta-gal luminescence (AID 2044); format: functional, cell-based;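 also: intracellular parasites grown in NIH/3T3 mouse fibroblasts as host cells; luminescent beta-galactosidase reporter signal from transgenic T. cruzi replicating inside host cells; inhibitors lower the luminescence signal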
[11] = non-specific cell cytotoxicity, dose response, cytotoxicity control for PAX8 inhibitor project, plate reader, dry powder samples (AID 743021); format: functional, cell-based
Streptokinase A = target: T4, Streptokinase A (Streptococcus pyogenes serotype M1, UniProt P10520); assay: S. pyogenes streptokinase expression inhibitors, potency, dose response, plasminogen activation absorbance, OD405 (AID 1914); format: functional, Streptococcus pyogenes M1 GAS;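 also: secreted streptokinase activity via plasminogen activation per viability signal from cell pellet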
T4 sequence (P10520 whole entry): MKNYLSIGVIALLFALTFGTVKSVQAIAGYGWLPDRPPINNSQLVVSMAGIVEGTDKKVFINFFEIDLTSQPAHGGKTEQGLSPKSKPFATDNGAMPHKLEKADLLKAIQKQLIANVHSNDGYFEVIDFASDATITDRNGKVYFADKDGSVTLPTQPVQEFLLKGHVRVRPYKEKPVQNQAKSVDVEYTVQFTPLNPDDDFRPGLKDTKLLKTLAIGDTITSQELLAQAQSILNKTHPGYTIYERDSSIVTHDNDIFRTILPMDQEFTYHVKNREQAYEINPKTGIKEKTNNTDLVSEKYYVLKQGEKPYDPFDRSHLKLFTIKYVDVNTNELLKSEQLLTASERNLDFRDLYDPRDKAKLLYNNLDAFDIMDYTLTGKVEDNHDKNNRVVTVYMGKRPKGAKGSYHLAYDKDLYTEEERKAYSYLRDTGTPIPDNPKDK

[12] = microbe, parasite or virus in culture; format: functional; settings: Mycobacterium tuberculosis
[13] = target: T5, Probable nicotinate-nucleotide adenylyltransferase (Staphylococcus aureus (strain N315), UniProt P65502); format: functional, Staphylococcus aureus subsp. aureus N315; settings: read-out: IC50_Mean;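 as to IC50 Mean: confirmatory dose-response retesting of NadD inhibitor hits first found in an ultra-high-throughput screen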
T5 sequence (P65502 whole entry): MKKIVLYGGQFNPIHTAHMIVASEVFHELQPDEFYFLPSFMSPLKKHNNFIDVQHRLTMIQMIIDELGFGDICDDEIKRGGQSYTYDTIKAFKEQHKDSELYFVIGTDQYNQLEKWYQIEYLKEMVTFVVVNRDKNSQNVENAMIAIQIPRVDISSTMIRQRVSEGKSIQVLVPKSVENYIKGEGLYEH

Cytochrome P450 1A2 = target: T6, Cytochrome P450 1A2 (Homo sapiens, UniProt P05177);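 also: PubChem cytochrome P450 panel assay, CYP1A2 panel member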
T6 sequence (P05177 whole entry): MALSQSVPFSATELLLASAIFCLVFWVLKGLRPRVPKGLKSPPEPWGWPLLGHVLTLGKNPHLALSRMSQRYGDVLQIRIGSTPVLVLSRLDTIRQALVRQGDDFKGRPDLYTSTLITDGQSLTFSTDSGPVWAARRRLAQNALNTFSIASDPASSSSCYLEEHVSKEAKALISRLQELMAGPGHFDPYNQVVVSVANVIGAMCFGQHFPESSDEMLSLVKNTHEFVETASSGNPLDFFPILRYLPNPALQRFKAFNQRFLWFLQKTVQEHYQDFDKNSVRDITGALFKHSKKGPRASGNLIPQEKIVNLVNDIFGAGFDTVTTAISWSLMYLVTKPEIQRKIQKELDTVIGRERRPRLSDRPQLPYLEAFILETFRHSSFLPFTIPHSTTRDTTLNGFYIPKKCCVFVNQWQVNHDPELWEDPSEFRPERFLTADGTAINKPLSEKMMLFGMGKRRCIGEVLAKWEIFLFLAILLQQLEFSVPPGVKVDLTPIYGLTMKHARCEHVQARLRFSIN

[14] = target: T5, Probable nicotinate-nucleotide adenylyltransferase; format: functional, Staphylococcus aureus subsp. aureus N315
[15] = AlphaScreen signal interference compounds, dose response, artefact control for ARNT-TACC3 interaction inhibitor project, biochemical, luminescence, cherry-pick (AID 651705); format: functional;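 also: AlphaScreen bead proximity signal that flags compounds interfering with the detection technology; potency reflects signal decrease which marks the compound as an assay artifact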
[16] = target: SWI/SNF-related matrix-associated actin-dependent regulator of chromatin subfamily A member 2 (Homo sapiens, UniProt P51531); assay: Luminescence-based cell-based high throughput dose response assay to identify activators of the function of SWI/SNF related, matrix associated, actin dependent regulator of chromatin, subfamily a, member 2 (SMARCA2, BRM).; format: functional
Chain of SWI/SNF-related matrix-associated actin-dependent regulator of chromatin subfamily A member 2 (P51531 whole entry): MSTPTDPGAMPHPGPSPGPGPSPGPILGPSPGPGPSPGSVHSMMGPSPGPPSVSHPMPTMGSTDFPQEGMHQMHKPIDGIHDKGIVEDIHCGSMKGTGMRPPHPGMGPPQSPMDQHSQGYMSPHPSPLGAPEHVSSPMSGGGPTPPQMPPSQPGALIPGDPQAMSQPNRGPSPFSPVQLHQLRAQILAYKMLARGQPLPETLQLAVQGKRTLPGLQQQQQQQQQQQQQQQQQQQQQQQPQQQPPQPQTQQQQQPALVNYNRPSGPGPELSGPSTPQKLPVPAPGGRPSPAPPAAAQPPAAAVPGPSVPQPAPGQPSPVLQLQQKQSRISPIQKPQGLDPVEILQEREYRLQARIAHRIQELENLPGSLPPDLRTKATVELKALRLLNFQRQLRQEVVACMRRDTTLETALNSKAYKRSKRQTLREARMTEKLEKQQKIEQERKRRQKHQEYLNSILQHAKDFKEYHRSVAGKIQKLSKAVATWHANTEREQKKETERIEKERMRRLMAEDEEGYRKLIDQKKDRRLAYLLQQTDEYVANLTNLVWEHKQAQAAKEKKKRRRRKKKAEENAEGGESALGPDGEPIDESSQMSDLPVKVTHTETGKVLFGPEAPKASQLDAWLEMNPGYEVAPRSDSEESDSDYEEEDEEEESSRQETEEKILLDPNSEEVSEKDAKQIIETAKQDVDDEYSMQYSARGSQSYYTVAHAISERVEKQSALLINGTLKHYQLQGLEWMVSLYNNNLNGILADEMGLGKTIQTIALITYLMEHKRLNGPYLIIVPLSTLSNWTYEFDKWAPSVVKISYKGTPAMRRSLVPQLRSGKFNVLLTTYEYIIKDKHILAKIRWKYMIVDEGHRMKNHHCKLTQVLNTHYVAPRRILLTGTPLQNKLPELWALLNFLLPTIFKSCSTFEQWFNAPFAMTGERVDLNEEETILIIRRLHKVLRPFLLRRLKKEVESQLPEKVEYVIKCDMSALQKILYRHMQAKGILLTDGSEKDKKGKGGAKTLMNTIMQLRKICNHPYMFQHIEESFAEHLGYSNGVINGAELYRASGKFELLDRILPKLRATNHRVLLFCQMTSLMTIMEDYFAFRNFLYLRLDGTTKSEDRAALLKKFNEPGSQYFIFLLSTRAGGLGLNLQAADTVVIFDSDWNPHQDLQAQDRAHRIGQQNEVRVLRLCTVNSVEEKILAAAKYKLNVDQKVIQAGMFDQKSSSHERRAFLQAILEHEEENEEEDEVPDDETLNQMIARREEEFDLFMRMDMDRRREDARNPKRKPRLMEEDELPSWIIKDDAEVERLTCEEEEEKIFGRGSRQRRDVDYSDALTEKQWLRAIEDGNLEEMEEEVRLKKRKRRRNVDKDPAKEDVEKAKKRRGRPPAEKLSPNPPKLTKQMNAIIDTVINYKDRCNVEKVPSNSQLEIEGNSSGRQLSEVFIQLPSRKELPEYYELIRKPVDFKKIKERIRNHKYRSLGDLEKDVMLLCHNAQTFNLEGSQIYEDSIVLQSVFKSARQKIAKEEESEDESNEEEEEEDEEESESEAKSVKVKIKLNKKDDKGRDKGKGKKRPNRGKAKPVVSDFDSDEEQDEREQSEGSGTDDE

[17] = target: T7, Microphthalmia-associated transcription factor (Homo sapiens, UniProt O75030); assay: TRPM1 promoter luciferase signal decrease, dose response, MITF inhibitor project, cell-based, SK-MEL-5, cherry-picked, set 3 (AID 493073); format: functional
T7 sequence (O75030 whole entry): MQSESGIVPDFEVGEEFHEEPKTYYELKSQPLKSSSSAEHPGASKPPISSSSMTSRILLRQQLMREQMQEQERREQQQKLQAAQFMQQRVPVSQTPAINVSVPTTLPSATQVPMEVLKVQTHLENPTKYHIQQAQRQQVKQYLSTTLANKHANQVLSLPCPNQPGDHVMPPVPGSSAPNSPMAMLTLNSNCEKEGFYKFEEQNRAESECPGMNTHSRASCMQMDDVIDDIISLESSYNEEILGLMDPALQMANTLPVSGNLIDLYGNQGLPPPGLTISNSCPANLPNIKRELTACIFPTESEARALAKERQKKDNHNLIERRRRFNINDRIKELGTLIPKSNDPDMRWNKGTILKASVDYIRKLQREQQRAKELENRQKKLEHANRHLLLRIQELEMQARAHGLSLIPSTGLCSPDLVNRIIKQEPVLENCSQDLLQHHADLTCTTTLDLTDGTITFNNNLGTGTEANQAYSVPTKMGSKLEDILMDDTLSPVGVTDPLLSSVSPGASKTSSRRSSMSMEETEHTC

Interleukin-8 [18] = target: T8, Interleukin-8 (Homo sapiens, UniProt P10145); assay: Dose Response confirmation of uHTS small molecule hits for cystic fibrosis induced NFkb Inhibitors in a PAF-induced IL8 counterscreen.; format: functional; settings: read-out: IC50_Mean
T8 sequence (P10145 whole entry): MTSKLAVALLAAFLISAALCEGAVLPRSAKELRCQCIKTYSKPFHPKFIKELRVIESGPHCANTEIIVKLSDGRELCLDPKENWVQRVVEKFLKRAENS

Interleukin-8 [19] = target: T8, Interleukin-8; assay: Dose Response confirmation of uHTS small molecule hits for cystic fibrosis induced NFkb Inhibitors in a TNFa-induced IL8 counterscreen.; format: functional; settings: read-out: IC50_Mean

Chain of Botulinum neurotoxin type F (P30996 1-436 limits assumed): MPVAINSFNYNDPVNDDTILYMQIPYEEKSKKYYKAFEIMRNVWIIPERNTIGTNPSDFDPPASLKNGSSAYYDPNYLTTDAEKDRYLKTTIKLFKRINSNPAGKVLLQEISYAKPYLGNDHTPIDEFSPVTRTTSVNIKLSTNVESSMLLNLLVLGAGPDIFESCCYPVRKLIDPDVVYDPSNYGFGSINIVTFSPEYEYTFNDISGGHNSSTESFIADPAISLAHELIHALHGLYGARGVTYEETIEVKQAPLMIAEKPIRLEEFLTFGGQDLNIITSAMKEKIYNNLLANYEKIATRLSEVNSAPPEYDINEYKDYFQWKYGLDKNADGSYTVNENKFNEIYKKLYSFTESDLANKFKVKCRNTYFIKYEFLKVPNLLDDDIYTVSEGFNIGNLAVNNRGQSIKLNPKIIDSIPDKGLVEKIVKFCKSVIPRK

O=C(O)CN1CCN(CC(=O)O)CCN(CC(=O)O)CCN(CC(=O)O)CC1 [TETRAXETAN]
EC50 [1]: > 20 µM (inactive)

c1ccc(-c2cc(N3CCCCC3)c3ccccc3n2)cc1
IC50 [2]: 14 µM (active) | IC50 [3]: 3.92 µM (not active) | IC50 [4]: 9.25 µM (active)

COc1cc(/C=N/Nc2nc(Nc3ccc(C)cc3)nc(-n3nc(C)cc3C)n2)cc(OC)c1OC
EC50 (Streptococcus): 15.5 µM (active) | EC50 [5]: 11 µM (active) | AC50 (Paired box protein Pax-8): 6.57 µM (active) | IC50 (Melanocortin receptor 4): > 64.6 µM (inactive) | IC50 [6]: > 100 µM (not active) | IC50 [7]: > 64.6 µM (inactive) | IC50 [8]: > 100 µM (inactive) | EC50 [9]: 1.82 µM (active) | EC50 [10]: 0.608 µM (active) | AC50 [11]: 38.4 µM (active) | EC50 (Streptokinase A): > 150 µM (not active)

O=c1/c(=C\c2ccc(O)cc2)sc2n1C(c1ccccc1)C(c1ccccc1)=NN=2 (centres undefined)
CC50 [12]: 33 µM (active) | IC50 [13]: 32.1 µM (active) | AC50 (Cytochrome P450 1A2): 4.47 µM (inconclusive) | IC50 [14]: 13.7 µM (active)

O=S(=O)(c1ccc(Br)cc1)c1nc(-c2ccco2)oc1NCCCn1ccnc1
AC50 [15]: 108 µM (active)

Nc1nc2nn[nH]c2c(=O)[nH]1 [8-AZAGUANINE]
EC50 [16]: > 91.2 µM (inactive) | AC50 [17]: 0.875 µM (active)

O=S1(=O)CC=C(CSC(=S)NC2CCS(=O)(=O)C2)C1 (centres undefined)
IC50 (Interleukin-8 [18]): 2.06 µM (active) | IC50 (Interleukin-8 [19]): 3.68 µM (active)
